Where “and” joins values, the source holds several entries; their conditions need not be identical. Identical values can stand only once. Entries after “also recorded” stand apart in the source; their conditions may differ. Like-named read-outs stand apart in the source and are kept apart here. Positions of bridges follow the written chain, without caps; N, C: chain ends. Residues, ends and D or L forms follow the SMILES beside them.
How the values were obtained:
[1] = biological target: Cav2.2 expressed in rat brain (Rattus norvegicus, UniProt Q02294); assay: biochemical; format: binding, rat (male Wistar)
[2] = biological target: Cav2.2 expressed in SH-SY5Y membranes (Homo sapiens, UniProt Q00975); assay: biochemical; format: binding
[3] = biological target: Cav2.2 expressed in SH-SY5Y whole cell (Homo sapiens, UniProt Q00975); assay: cell-based; format: binding
[4] = biological target: Cav2.2 channels endogenously expressed in SH-SY5Y cells (Homo sapiens, UniProt Q00975); assay: cell-based
[5] = system: α2δ; parameters: method as in PMID 19559597; details: cited from earlier work
[6] = system: resistant KCl-evoked Ca^2+ responses in SH-SY5Y cells; assay: cells; format: cell-based, human; details: for IC50: Homo sapiens, SH-SY5Y, read-out: Ca2+ inhibition IC50, resistant responses
[7] = system: Cav3; parameters: method as in PMID 10991994, PMID 9481480; details: different systems; cited from earlier work
[8] = system: L-type channels; parameters: method as in PMID 10991994, PMID 7565636; details: cited from earlier work
[9] = biological target: Cav1 channels endogenously expressed in SH-SY5Y cells (Homo sapiens, UniProt Q01668); assay: Inhibition of KCl-evoked Cav1 Ca2+ responses in presence of CVID, FLIPR-Tetra; format: cell-based; details: in presence of saturating CVID
[10] = system: Cav channels endogenously expressed in SH-SY5Y cells; format: cell-based, human
[11] = in presence of CVID and nifedipine, agatoxins and SNX 482 up to 10 µM, mibefradil 30 µM

Cav2.2 expressed in SH-SY5Y whole cell, sequence (Q00975 whole entry, looked up): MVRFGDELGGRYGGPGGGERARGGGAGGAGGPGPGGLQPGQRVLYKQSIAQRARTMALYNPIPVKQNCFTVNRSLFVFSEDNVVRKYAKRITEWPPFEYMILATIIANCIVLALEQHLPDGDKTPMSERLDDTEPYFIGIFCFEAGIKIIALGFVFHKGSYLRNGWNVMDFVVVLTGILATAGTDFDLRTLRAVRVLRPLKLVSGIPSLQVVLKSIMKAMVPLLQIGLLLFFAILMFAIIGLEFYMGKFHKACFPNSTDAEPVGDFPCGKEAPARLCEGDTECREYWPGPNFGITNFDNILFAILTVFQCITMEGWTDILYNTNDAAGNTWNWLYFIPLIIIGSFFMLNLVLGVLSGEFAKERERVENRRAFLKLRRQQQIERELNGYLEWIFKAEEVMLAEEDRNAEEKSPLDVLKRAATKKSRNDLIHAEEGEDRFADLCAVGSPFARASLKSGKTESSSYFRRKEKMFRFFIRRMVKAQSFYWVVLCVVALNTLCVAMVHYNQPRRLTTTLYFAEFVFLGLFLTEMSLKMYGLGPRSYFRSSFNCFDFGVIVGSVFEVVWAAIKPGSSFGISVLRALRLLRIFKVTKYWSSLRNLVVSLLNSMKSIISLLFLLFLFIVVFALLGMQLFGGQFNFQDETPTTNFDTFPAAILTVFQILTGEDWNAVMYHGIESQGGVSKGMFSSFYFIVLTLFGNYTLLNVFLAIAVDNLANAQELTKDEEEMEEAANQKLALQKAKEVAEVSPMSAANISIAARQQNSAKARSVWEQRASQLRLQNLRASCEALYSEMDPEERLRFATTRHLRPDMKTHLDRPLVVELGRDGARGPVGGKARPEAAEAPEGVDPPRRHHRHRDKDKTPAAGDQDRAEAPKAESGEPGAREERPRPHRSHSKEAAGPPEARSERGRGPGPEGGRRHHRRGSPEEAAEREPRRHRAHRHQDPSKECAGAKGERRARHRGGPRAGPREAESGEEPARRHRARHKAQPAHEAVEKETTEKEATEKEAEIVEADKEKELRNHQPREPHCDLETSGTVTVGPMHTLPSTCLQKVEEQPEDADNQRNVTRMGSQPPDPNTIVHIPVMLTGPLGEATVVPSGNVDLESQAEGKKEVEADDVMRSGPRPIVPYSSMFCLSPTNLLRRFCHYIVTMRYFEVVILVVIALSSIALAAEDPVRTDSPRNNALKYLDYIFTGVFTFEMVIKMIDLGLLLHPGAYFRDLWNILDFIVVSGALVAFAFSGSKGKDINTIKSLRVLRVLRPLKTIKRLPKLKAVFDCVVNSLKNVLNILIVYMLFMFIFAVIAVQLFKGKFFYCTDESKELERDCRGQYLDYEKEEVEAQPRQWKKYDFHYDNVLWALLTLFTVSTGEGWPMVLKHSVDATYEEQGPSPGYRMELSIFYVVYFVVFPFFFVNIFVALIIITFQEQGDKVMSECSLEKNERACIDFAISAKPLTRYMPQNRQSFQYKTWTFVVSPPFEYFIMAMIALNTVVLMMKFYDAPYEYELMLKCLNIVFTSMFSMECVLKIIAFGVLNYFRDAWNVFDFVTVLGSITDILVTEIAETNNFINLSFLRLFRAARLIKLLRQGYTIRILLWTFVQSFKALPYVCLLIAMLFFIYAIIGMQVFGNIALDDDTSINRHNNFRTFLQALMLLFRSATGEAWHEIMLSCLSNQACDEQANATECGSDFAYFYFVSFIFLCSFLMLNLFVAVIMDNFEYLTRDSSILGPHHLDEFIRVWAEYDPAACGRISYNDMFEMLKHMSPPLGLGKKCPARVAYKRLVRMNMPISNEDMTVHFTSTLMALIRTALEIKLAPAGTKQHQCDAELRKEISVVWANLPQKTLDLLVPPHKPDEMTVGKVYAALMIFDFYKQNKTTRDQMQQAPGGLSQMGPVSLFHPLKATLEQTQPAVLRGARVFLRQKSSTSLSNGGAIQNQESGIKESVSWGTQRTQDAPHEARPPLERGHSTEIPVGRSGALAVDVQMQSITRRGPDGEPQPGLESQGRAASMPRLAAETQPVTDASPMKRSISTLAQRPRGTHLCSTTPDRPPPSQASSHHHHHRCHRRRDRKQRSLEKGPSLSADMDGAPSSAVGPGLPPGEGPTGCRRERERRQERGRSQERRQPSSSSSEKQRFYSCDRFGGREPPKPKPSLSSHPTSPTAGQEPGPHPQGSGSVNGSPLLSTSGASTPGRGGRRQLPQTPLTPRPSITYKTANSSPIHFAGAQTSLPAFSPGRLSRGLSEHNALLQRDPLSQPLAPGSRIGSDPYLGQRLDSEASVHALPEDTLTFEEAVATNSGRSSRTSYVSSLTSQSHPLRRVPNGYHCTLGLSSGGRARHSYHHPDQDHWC
Cav2.2 channels endogenously expressed in SH-SY5Y cells, sequence (Q00975 whole entry, looked up): as above
Cav2.2 expressed in SH-SY5Y membranes, sequence (Q00975 whole entry, looked up): as above
Cav2.2 expressed in rat brain, sequence (Q02294 whole entry, looked up): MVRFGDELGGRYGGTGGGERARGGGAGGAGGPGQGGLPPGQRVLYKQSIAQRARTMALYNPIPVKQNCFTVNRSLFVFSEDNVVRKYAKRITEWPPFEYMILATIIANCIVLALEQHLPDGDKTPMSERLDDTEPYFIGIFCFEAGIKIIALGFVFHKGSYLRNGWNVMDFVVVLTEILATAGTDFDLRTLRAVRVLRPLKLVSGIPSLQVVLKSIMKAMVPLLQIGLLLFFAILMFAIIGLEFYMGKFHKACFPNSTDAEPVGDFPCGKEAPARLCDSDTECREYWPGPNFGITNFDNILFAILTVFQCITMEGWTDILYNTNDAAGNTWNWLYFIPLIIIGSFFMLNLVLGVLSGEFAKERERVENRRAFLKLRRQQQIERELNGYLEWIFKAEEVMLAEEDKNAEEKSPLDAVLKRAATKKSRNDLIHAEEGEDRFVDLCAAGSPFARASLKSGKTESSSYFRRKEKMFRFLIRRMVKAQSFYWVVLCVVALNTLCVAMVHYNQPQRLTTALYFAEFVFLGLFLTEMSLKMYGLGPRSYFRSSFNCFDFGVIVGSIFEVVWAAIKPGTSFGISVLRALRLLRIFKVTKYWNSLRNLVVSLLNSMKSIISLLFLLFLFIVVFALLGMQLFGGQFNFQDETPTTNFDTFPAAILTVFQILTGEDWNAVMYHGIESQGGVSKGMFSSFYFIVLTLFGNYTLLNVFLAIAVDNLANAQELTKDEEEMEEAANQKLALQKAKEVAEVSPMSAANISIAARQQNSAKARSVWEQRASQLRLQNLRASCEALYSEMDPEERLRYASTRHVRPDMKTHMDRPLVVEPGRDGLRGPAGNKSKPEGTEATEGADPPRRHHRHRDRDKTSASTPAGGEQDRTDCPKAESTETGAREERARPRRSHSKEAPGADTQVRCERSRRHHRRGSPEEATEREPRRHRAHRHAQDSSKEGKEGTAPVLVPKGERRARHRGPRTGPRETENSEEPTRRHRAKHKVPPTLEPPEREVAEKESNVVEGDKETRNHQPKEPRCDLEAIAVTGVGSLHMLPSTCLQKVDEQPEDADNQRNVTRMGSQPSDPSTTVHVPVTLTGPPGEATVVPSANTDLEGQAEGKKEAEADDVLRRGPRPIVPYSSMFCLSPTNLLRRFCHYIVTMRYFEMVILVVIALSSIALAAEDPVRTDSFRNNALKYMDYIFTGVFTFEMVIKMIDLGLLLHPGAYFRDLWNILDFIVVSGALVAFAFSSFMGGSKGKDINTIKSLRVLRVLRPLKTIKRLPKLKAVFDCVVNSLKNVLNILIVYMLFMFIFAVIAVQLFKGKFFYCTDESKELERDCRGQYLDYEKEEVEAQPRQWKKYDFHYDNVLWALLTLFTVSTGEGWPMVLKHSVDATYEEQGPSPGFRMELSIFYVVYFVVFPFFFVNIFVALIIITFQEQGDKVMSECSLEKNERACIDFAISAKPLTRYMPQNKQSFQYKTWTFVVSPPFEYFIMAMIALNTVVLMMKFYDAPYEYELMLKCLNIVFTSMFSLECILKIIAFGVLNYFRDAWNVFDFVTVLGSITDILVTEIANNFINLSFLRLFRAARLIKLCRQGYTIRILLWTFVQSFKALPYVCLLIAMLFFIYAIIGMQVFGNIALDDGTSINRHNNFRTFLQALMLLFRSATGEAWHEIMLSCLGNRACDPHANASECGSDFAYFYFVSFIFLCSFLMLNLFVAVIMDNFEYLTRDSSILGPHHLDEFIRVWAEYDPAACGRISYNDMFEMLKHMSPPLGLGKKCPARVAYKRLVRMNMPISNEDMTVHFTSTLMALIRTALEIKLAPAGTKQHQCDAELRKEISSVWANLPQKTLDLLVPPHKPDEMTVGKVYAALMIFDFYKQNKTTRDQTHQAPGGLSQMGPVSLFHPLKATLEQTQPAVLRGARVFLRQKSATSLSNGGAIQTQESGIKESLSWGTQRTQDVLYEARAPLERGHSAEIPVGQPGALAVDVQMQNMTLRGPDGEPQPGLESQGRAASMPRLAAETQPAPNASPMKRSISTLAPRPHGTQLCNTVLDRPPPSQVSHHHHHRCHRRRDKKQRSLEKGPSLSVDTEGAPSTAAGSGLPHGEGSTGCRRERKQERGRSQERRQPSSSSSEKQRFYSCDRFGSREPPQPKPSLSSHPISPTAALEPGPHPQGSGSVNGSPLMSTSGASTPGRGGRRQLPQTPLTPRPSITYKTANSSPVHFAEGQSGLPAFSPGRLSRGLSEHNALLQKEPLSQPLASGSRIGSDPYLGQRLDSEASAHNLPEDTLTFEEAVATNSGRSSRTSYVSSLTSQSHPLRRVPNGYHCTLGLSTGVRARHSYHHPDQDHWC

CSCC[C@@H]1NC(=O)[C@H](CC(C)C)NC(=O)[C@H](CCCCN)NC(=O)[C@H](CO)NC(=O)[C@@H]2CSSC[C@@H]3NC(=O)[C@H](CO)NC(=O)CNC(=O)[C@H](CO)NC(=O)[C@H](CSSC[C@H](N)C(=O)N[C@@H](CCCCN)C(=O)N[C@@H](CO)C(=O)N[C@@H](CCCCN)C(=O)NCC(=O)N[C@@H](C)C(=O)N[C@@H](CCCCN)C(=O)N2)NC(=O)[C@H](CSSC[C@@H](C(N)=O)NC(=O)[C@H](CCCNC(=N)N)NC(=O)CNC(=O)[C@H](C(C)C)NC(=O)[C@H]([C@@H](C)O)NC(=O)CNC(=O)[C@H](CO)NC3=O)NC(=O)[C@H](CC(=O)O)NC(=O)[C@H](Cc2ccc(O)cc2)NC1=O [CVID] (H-CKSKGAKCSKLMYDCCSGSCSGTVGRC-NH2; disulfide 1-16, 8-20, 15-27)
IC50 [1]: 0.0295 nM | IC50 [2]: 0.00309 nM | Kd [3]: 0.0032 ± 0.0002 µM | IC50 [4]: 0.16 ± 0.025 µM

C[C@@H](O)[C@@H]1NC(=O)[C@H](Cc2ccc(O)cc2)NC(=O)[C@@H]2C[C@@H](O)CN2C(=O)[C@H](CC(N)=O)NC(=O)[C@@H]2CSSC[C@@H]3NC(=O)[C@H](CO)NC(=O)[C@H](CO)NC(=O)CNC(=O)[C@@H]4C[C@@H](O)CN4C(=O)[C@H](CO)NC(=O)[C@H](CCCCN)NC(=O)[C@@H](N)CSSC[C@H](NC(=O)[C@H](CSSC[C@@H](C(=O)N[C@@H](Cc4ccc(O)cc4)C(N)=O)NC(=O)[C@H](CCCN=C(N)N)NC(=O)[C@H](CCCCN)NC1=O)NC(=O)[C@H](CC(N)=O)NC(=O)[C@H](Cc1ccc(O)cc1)NC(=O)[C@H](CO)NC(=O)[C@H]([C@@H](C)O)NC(=O)[C@@H]1C[C@@H](O)CN1C(=O)[C@H](CO)NC3=O)C(=O)N[C@@H](CCCN=C(N)N)C(=O)N[C@@H](CO)C(=O)N2 [GVIA]
IC50 [1]: 0.0372 nM | IC50 [2]: 0.0282 nM | Kd [3]: 0.00027 ± 8.4e-05 µM | IC50 [4]: 0.15 ± 0.09 µM

NCC1(CC(=O)O)CCCCC1 [gabapentin]
Effect of α2δ binding on Cav2.2 trafficking and pain (in words) [5]: reducing Cav2.2 trafficking and the symptoms of pain

COCC(=O)O[C@]1(CCN(C)CCCc2nc3ccccc3[nH]2)CCc2cc(F)ccc2[C@@H]1C(C)C [mibefradil]
IC50 [6]: 3 ± 0.031 µM | Effect on resistant KCl-evoked Ca2+ responses (in words) [6, 11]: fully inhibited these remaining responses; also recorded: completely abolished | Inhibition of Cav3 responses (in words) [7]: weak affinity | Inhibition of L-type channels (in words) [8]: also inhibit L-type channels

COC(=O)C1=C(C)NC(C)=C(C(=O)OC)C1c1ccccc1[N+](=O)[O-] [nifedipine]
Block of L-type KCl responses (in words) [9]: concentration-dependently blocked KCl responses

O=c1[nH]c2ccccc2n1C1CCN(CCCC(c2ccc(F)cc2)c2ccc(F)cc2)CC1 [pimozide]
IC50 [6]: 1.3 ± 0.097 µM | Effect on resistant KCl-evoked Ca2+ responses (in words) [6, 11]: fully inhibited the remaining responses; also recorded: completely abolished | Inhibition of L-type channels (in words) [8]: also inhibit L-type channels

KCl
Hill slope [10]: 2.5 and 2.9 and 3.5 | KCl-evoked Ca2+ response (in words) [10]: evoked a large transient response; also recorded: elicits maximal Cav1 and Cav2.2 responses | pEC50 for KCl-mediated stimulation [10]: 1.69±0.12 | EC50 ([10]; read-out: Ca2+ stimulation EC50): 17300 ± 3410 µM

SNX 482
Ca2+ inhibition IC50, resistant responses [6]: NDR | Effect on resistant KCl-evoked Ca2+ responses (in words) [6]: no significant inhibitory effect; also recorded: not blocked

ω-agatoxin
Effect on resistant KCl-evoked Ca2+ responses (in words) [6]: not blocked

ω-agatoxin IVA
Effect on resistant KCl-evoked Ca2+ responses (in words) [6]: did not significantly affect KCl-evoked Ca^2+ responses

From paper PMC3607609 (PLoS ONE, 2013)
